pIC50: −log10 of the molar value.
Columns and labels:
[1] = target: K-Ras^G12C : hSOS1 interaction (Homo sapiens, UniProt Q07889); experiment: Biochemical assay 1: K-Ras^G12C interaction assay with hSOS1 (HTRF); assay type: binding; conditions: read-out: Assay 1 (KRAS-SOS Interaction) activity expressed as IC50
Protocol: Biochemical assay 1: K-Ras^G12C Interaction Assay with hSOS1
This assay quantifies the equilibrium interaction of human SOS1 with K-Ras^Gl2C. Detection of the interaction is achieved by measuring homogenous time-resolved fluorescence resonance energy transfer (HTRF) from antiGST-Europium (FRET donor) bound to GST-K-Ras^G12C to anti-6His-XL665 bound to His-tagged hSOS1 (FRET-acceptor).
The assay buffer contained 5 mM HEPES pH 7.4 (Applichem), 150 mM NaCl (Sigma), 10 mM EDTA (Promega), 1 mM DTT (Thermofisher), 0.05% BSA Fraction V, pH 7.0, (ICN Biomedicals), 0.0025% (v/v) Igepal (Sigma) and 100 mM KF (FLUKA).
Concentrations of protein batches used were optimized to be within the linear range of the HTRF signal. A Ras working solution was prepared in assay buffer containing typically 10 nM GST-hK-RasG12C and 2 nM antiGST-Eu(K) (Cisbio, France). A SOS working solution was prepared in assay buffer containing typically 20 nM His-hSOS1 and 10 nM anti-6His-XL665 (Cisbio, France). An inhibitor control solution was prepared in assay buffer containing 10 nM anti-6His-XL665 without hSOS1.
(§1) Fifty nl of a 100-fold concentrated solution of the test compound in DMSO were transferred into a black microtiter test plate (384 or 1536, Greiner Bio-One, Germany). For this, either a Hummingbird liquid handler (Digilab, MA, USA) or an Echo acoustic system (Labcyte, CA, USA) was used.
(§2) All steps of the assay were performed at 20° C. A volume of 2.5 μl of the Ras working solution was added to all wells of the test plate using a Multidrop dispenser (Thermo Labsystems). After 2 min preincubation, 2.5 μl of the SOS working solution were added to all wells except for those wells at the side of the test plate that were subsequently filled with 2.5 μl of the inhibitor control solution. After 60 min incubation the fluorescence was measured with a Pherastar (BMG, Germany) using the HTRF module (excitation 337 nm, emission 1: 620 nm, emission 2: 665 nm).
(§3) IC50 values were calculated by 4-Parameter fitting using a commercial software package (Genedata Screener, Switzerland).

[2] = target: human SOS1 (nucleotide exchange of K-Ras^G12C) (Homo sapiens, UniProt Q07889); experiment: Biochemical assay 2: K-Ras^G12C activation assay by hSOS1 at high GTP concentration (HTRF); conditions: high GTP; read-out: Assay 2 (KRAS-Activation by SOS high GTP) activity expressed as IC50
Source text: Biochemical Assay 2: K-Ras^G12C Activation Assay by hSOS1 at High GTP Concentration
This assay quantifies human SOS1-mediated nucleotide exchange of K-Ras^G12C preloaded with a fluorescent […] and in presence of an excess of free GTP. Loaded hK-Ras^G12C generates a high HTRF-signal by energy transfer from antiGST-Terbium (FRET donor) bound to K-Ras to the loaded fluorescent GDP analog (FRET-acceptor). SOS1 activity exchanges the fluorescent GDP for non-fluorescent GTP and therefore leads to a reduction of the HTRF signal.
The fluorescent GDP-analog EDA-GDP-Dy647P1 (2′/3′-O-(2-Aminoethyl-carbamoyl)-guanosine-5′-diphosphate labelled with Dy647P1 (Dyomics GmbH, Germany)) was synthesized by Jena Biosciences GmbH (Germany) and supplied as a 1 mM aqueous solution.
Concentrations of protein batches used were optimized to be within the linear range of the HTRF signal.
Preparation of GST-tagged hK-Ras^Gl2C loaded with fluorescent nucleotide was performed as follows: incubation of 11.5 μM hK-Ras^Gl2C with 5-fold excess GDP-Dy647 nucleotide (54 μM) in 500 μl NLS-buffer (RAS activation Kit Jena Bioscience, Kat. #PR-950) for 10 min at 37° C. Addition of 20 μl 1 M MgCl2 (Sigma) to final 40 mM and store on ice. Purification into buffer (10 mM HEPES pH 7.4 (Applichem), 150 mM NaCl (Sigma), 5 mM MgCl2 (Sigma)) by use of a PD-Minitrap desalting column (GE Healthcare). Concentration of 1 ml purified hK-Ras-GDP-Dy647 is approx. 4-5 μM.
(§4) The assay buffer contained 10 mM HEPES pH 7.4 (Applichem), 150 mM NaCl (Sigma), 5 mM MgCl2 (Sigma), 1 mM DTT (Thermofisher), 0.05% BSA Fraction V, pH 7.0, (ICN Biomedicals), 0.0025% (v/v) Igepal (Sigma).
A Ras working solution was prepared in assay buffer containing typically 80 nM loaded GST-hK-RasG12C-EDA-GDP-Dy647P1 and 2 nM antiGST-Tb (Cisbio, France). A hSOS1 working solution was prepared in assay buffer containing typically 8 nM His-hSOS1 and 100 μM GTP (Jena Bioscience, Germany). An inhibitor control solution was prepared in assay buffer containing the same concentration of […].
as §1
as §2, with “hSOS1” for “SOS”, “20” for “60”
as §3

[3] = target: human SOS1 (loading of human K-Ras^G12C-GDP with fluorescent GTP-analog) (Homo sapiens, UniProt Q07889); experiment: Biochemical assay 3: K-Ras^G12C activation assay by hSOS1 (HTRF); conditions: no GTP; read-out: Assay 3 (KRAS-Activation by SOS no GTP) activity expressed as IC50
Source text: Biochemical assay 3: K-Ras^G12C Activation Assay by hSOS1
K-Ras is a small GTPase that can bind GDP and GTP. The guanine nucleotide exchange factor SOS catalyzes the activation of K-Ras by promoting the exchange of GDP to GTP. SOS binds to K-Ras-GDP thereby opening the GDP-binding pocket to facilitate GDP release. Rebinding of excess nucleotide leads to dissociation of the K-Ras-SOS intermediate complex leaving K-Ras loaded with the nucleotide.
This assay quantifies human SOS1-mediated loading of human K-Ras^G12C-GDP with a fluorescent GTP-analog. Detection of successful loading is achieved by measuring homogenous time-resolved fluorescence resonance energy transfer (HTRF) from antiGST-Terbium (FRET donor) bound to GST-K-RasG12C to the loaded fluorescent GTP analog (FRET-acceptor).
The fluorescent GTP-analog EDA-GTP-Dy647P1 (2′/3′-O-(2-Aminoethyl-carbamoyl)-guanosine-5′-triphosphate labelled with Dy647P1 (Dyomics GmbH, Germany)) was synthesized by Jena Biosciences GmbH (Germany) and supplied as a 1 mM aqueous solution.
as §4
Concentrations of protein batches used were optimized to be within the linear range of the HTRF signal. A Ras working solution was prepared in assay buffer containing typically 100 nM GST-hK-RasG12C and 2 nM antiGST-Tb (Cisbio, France). A hSOS1 working solution was prepared in assay buffer containing typically 20 nM hSOS1 and 200 nM EDA-GTP-Dy647P1. An inhibitor control solution was prepared in assay buffer containing 200 nM EDA-GTP-Dy647P1 without hSOS1.
as §1
as §2, with “After 10” for “After 2”, “the hSOS1” for “the SOS”, “After 30” for “After 60”
as §3

Compound	pIC50 [1]	pIC50 [2]	pIC50 [3]
COc1cc2nc(C)nc(N[C@@H](C)c3ccc(-c4cncnc4)s3)c2cc1OC (racemic) [Example 42, 6,7-dimethoxy-2-methyl-N-{1-[5-(pyrimidin-5-yl)thiophen-2-yl]ethyl}quinazolin-4-amine]	5.37	5.25	–
COc1cc2nc(C)nc(N[C@@H](C)c3ccc(-c4cccc5cnccc45)s3)c2cc1OC (racemic) [Example 45, N-{1-[5-(isoquinolin-5-yl)thiophen-2-yl]ethyl}-6,7-dimethoxy-2-methylquinazolin-4-amine]	5.82	5.66	5.96
COc1cc2nc(C)nc(N[C@@H](C)c3ccc(-c4cncc(C)c4)s3)c2cc1OC (racemic) [Example 46, 6,7-dimethoxy-2-methyl-N-{1-[5-(5-methylpyridin-3-yl)thiophen-2-yl]ethyl}quinazolin-4-amine]	5.63	5.42	5.39
COCc1ccccc1-c1ccc([C@H](C)Nc2nc(C)nc3cc(OC)c(OC)cc23)s1 (racemic) [Example 50, 6,7-dimethoxy-N-[1-{5-[2-(methoxymethyl)phenyl]thiophen-2-yl}ethyl]-2-methylquinazolin-4-amine]	5.01	4.70	–
COc1cc2nc(C)nc(N[C@@H](C)c3ccc(-c4cccc(C(=O)N(C)C)c4)s3)c2cc1OC (racemic) [Example 51, 3-(5-{1-[(6,7-dimethoxy-2-methylquinazolin-4-yl)amino]ethyl}thiophen-2-yl)-N,N-dimethylbenzamide]	5.25	5.23	–
COc1cc2nc(C)nc(N[C@@H](C)c3ccc(-c4ccc(CO)s4)s3)c2cc1OC (racemic) [Example 52, (5′-{1-[(6,7-dimethoxy-2-methylquinazolin-4-yl)amino]ethyl}-2,2′-bithiophen-5-yl)methanol]	5.37	5.26	–
COc1cc2nc(C)nc(N[C@@H](C)c3ccc(-c4ccc(-c5nnc(C)o5)cc4)s3)c2cc1OC (racemic) [Example 128, 6,7-dimethoxy-2-methyl-N-[1-{5-[4-(5-methyl-1,3,4-oxadiazol-2-yl)phenyl]thiophen-2-yl}ethyl]quinazolin-4-amine]	4.86	4.77	–
COc1cc2nc(C)nc(N[C@@H](C)c3ccc(-c4ccc(CNC(C)=O)cc4)s3)c2cc1OC (racemic) [Example 138, N-[4-(5-{1-[(6,7-dimethoxy-2-methylquinazolin-4-yl)amino]ethyl}thiophen-2-yl)benzyl)acetamide]	5.25	5.13	–
COc1cc2nc(C)nc(N[C@@H](C)c3ccc(-c4cccc(CNS(C)(=O)=O)c4)s3)c2cc1OC (racemic) [Example 139, N-[3-(5-{1-[(6,7-dimethoxy-2-methylquinazolin-4-yl)amino]ethyl}thiophen-2-yl)benzyl]methanesulfonamide]	5.33	5.21	–
COc1cc2nc(C)nc(N[C@@H](C)c3ccc(-c4ccc(CNS(C)(=O)=O)cc4)s3)c2cc1OC (racemic) [Example 140, N-[4-(5-{1-[(6,7-dimethoxy-2-methylquinazolin-4-yl)amino]ethyl}thiophen-2-yl)benzyl]methanesulfonamide]	5.27	5.28	–
COc1cc2nc(C)nc(N[C@@H](C)c3ccc(-c4ccc(S(C)(=O)=O)cc4)s3)c2cc1OC (racemic) [Example 149, 6,7-dimethoxy-2-methyl-N-[1-{5-[4-(methylsulfonyl)phenyl]thiophen-2-yl}ethyl]quinazolin-4-amine]	5.63	5.37	–
COc1cc2nc(C)nc(N[C@@H](C)c3ccc(-c4cccc(NS(C)(=O)=O)c4)s3)c2cc1OC (racemic) [Example 165, N-[3-(5-{1-[(6,7-dimethoxy-2-methylquinazolin-4-yl)amino]ethyl}thiophen-2-yl)phenyl]methanesulfonamide]	4.97	4.79	–
COc1cc2nc(C)nc(N[C@@H](C)c3ccc(-c4cccc(S(C)(=O)=O)c4)s3)c2cc1OC (racemic) [Example 173, 6,7-dimethoxy-2-methyl-N-[1-{5-[3-(methylsulfonyl)phenyl]thiophen-2-yl}ethyl]quinazolin-4-amine]	5.16	5.09	–
COc1cc2nc(C)nc(N[C@@H](C)c3ccc(-c4ccc(C(=O)N(C)C)cc4)s3)c2cc1OC (racemic) [Example 176, 4-(5-{1-[(6,7-dimethoxy-2-methylquinazolin-4-yl)amino]ethyl}thiophen-2-yl)-N,N-dimethylbenzamide]	5.46	5.24	–
